Tests used:
Conditions in all cases: Homo sapiens
CCRF-CEM [1] = assay: Compound was evaluated for the inhibition of HIV replication using HIV-2 infected CEM-TK- cells.; assay type: functional, cell-based
CCRF-CEM [2] = assay: Compound was evaluated for the cytotoxic concentration to inhibit HIV replication in CEM cells.; assay type: functional
CCRF-CEM [3] = assay: Compound was evaluated for the inhibition of HIV replication using HIV-1 infected CEM cells.; assay type: functional, cell-based
CCRF-CEM [4] = assay: Compound was evaluated for the inhibition of HIV replication using HIV-2 infected CEM cells.; assay type: functional, cell-based

Row | SMILES | EC50 (CCRF-CEM [1]) | CC50 (CCRF-CEM [2]) | EC50 (CCRF-CEM [3]) | EC50 (CCRF-CEM [4])
1 | COC(=O)C(C)NP(=O)(OC[C@@H]1C=C[C@H](n2cc(C)c(=O)[nH]c2=O)O1)Oc1ccccc1 (stereo partly specified) | 75 nM | > 100000 nM | 85 nM | 102 nM
2 | Cc1cn(C2C=CC(COP(=O)(NC(C)C(=O)OCc3ccccc3)Oc3ccccc3)O2)c(=O)[nH]c1=O (stereo unspecified) | 60 nM | 52000 nM | 22 nM | 39 nM
3 | Cc1cn([C@H]2C[C@H](N=[N+]=[N-])[C@@H](CO)O2)c(=O)[nH]c1=O [ZIDOVUDINE] | > 100000 nM | > 100000 nM | 5 nM | 8 nM
4 | Cc1cn([C@H]2C=C[C@@H](CO)O2)c(=O)[nH]c1=O [STAVUDINE] | 25000 nM | > 100000 nM | 160 nM | 270 nM
